# Values of other authors in patent US10071030B2, “Carrier comprising non-neutralised tocopheryl phosphate” (Phosphagenics Limited, priority 2010, dated 2018).
# Conditions: from dietary sources
structure (smiles),measurement,value
"COC1=C(OC)C(=O)C(C/C=C(\C)CC/C=C(\C)CC/C=C(\C)CC/C=C(\C)CC/C=C(\C)CC/C=C(\C)CC/C=C(\C)CC/C=C(\C)CC/C=C(\C)CCC=C(C)C)=C(C)C1=O [CoQ10, ubiquinone]",bioavailable fraction of CoQ10,5 to 10%
